Data on four compounds can be found in patent publication US20080038809A1, “ISOLATED LECTIN POLYPEPTIDES CONSISTING OF TRUNCATED […] UDP-GalNAc:POLYPEPTIDE N- ACETYLGALACTOSAMINYLTRANSFERASES” (GLYCOZYM APS, priority 2002, published 2008).

Read-outs that look alike come from different tables or passages of the source.

The subject of test [1] is T, Tn and sialyl-Tn in HT-29 MTX cells. The experiment in a line: O-linked mucin carbohydrate structures T, Tn and sialyl-Tn in HT-29 MTX cells by immuno-histochemistry. It counts as cell-based, human. As to conditions: 5 mM, compared to controls. The text has this:
In order to evaluate GalNAcβ-benzyl as an inhibitor of mucin glycosylation and secretion we used the cultured colon carcinoma cells of mucin secreting phenotypes: HT-29 metotrexate (MTX) cells selected from the HT-29 cell line by culture in the presence of MTX (kind gift from G. Huet, France). The HT-29 MTX cells were selected to yield a goblet cell like phenotype with constitutive production of MUC5AC. In order to ensure proper goblet cell differentiation the HT29MTX cell line were continuously grown up to 21 days in the presence of 5 mM GalNAcα-benzyl, 5 mM GalNAcβ-benzyl, 5 mM GlcNAcα-benzyl and without inhibitor using culture conditions as described in Hennebicq-Reig et al. (Permanent exposure of mucin-secreting HT-29 cells to benzyl-N-acetyl-alpha-D-galactosaminide induces abnormal O-glycosylation of mucins and inhibits constitutive and stimulated MUC5AC secretion. Biochem J. 1998; 334:283-95). […] Furthermore the viscosity of the media from cells with and without inhibitor was evaluated using viscosity micro-measurement.

For test [2], the system named is core 1 α2-3sialyltransferase ST3Gal-I. As to conditions: cited from earlier work.
Test [3] deals with T1, GalNAc-T2 lectin domain (Homo sapiens, UniProt Q10471).
T1 construct: comprises amino acid residues 408-571 of GALNT2; made in house; host or cells: baculovirus (pAcGP67-A), virus made in Sf9, protein produced in High Five insect cells
T1 sequence (Q10471 408-571): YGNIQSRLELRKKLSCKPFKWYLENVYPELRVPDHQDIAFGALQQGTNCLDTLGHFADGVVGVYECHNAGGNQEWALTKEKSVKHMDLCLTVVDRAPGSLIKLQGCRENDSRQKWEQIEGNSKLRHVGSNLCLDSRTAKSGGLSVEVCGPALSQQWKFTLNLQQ
In words: Inhibition of GalNAc-T2 lectin domain (T2ld) binding to GalNAc-MUC1 glycopeptide, ELISA. Here is the method:
(§1) Direct binding ELISA assay was developed as follows: Polystyrene microtiter plates (Maxisorb, Nunc, Denmark) were coated with peptides or enzymatically glycosylated glycopeptides in PBS overnight at 4° C. Plates were washed and blocked with 0.1% Tween20 and 0.2% BSA in PBS for 1 h at room temperature, followed by incubation with biotinylated proteins in PBS with 0.05% Tween20 for 2 h at room temperature. After four washes with PBS, plates were incubated with 1:2,000 dilution streptavidin-HRP (Sigma) in PBS for 30 min at room temperature and washed four times with PBS. Development was performed with 0.5 mg/ml o-phenylenediamine and 0.02% H2O2 at room temperature for 15 min, and reaction stopped by adding 100 μl/well of 0.5 N H2SO4. Competitive inhibition assays were done at end-point titers of GalNAc-transferase proteins with one hour preincubations with inhibitor.
(§2) In binding studies using lectins without biotinylation antibodies to the HIS-tag and the T7-tag, or in some experiments antibodies raised to GalNAc-T2 and -T4 enzymes were used to detect binding.
(§3) Inhibition experiments were used to further define the binding specificity of GalNAc-T2 and -T4 secreted soluble enzymes as well as lectin domains compared to Helix Pomatia lectin (Table IV).
On the technique in general: ELISA stands for enzyme-linked immunosorbent assay.

Test [4] deals with T2, secreted soluble GalNAc-T2 (Homo sapiens, UniProt Q10471).
T2 construct: 6xHis (N); thrombin cleavage site (N); T7 antibody site (N); made in house; host or cells: baculovirus (pAcGP67A), High Five insect cells
T2 sequence (Q10471 52-571 limits assumed): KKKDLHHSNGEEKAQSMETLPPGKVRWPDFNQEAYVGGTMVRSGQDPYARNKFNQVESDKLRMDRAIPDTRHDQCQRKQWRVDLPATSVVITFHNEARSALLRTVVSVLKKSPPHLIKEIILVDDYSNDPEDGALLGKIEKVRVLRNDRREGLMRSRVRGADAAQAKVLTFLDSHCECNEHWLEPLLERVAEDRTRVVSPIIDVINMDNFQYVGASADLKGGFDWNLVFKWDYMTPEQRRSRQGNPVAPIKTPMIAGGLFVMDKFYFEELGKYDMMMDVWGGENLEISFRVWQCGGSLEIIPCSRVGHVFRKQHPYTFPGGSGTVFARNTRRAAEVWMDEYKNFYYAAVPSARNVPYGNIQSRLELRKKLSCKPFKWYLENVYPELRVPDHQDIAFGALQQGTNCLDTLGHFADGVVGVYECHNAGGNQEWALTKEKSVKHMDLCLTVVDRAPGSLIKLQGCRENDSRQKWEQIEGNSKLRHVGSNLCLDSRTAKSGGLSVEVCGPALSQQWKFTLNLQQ
The experiment in a line: Inhibition of secreted soluble GalNAc-T2 (sT2) binding to GalNAc-MUC1 glycopeptide, ELISA. On the procedure: as §1, §3

In test [5] the target is T3, GalNAc-T4 lectin domain (Homo sapiens, UniProt Q8N4A0).
T3 construct: comprises amino acid residues 405-578 of GALNT4; made in house; host or cells: baculovirus (pAcGP67-A), virus made in Sf9, protein produced in High Five insect cells
T3 sequence (Q8N4A0 405-578): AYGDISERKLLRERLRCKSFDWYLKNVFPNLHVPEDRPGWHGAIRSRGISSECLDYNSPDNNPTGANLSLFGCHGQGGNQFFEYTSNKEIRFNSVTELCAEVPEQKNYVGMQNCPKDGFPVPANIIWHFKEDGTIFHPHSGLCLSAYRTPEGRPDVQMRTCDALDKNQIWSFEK
In words: Inhibition of GalNAc-T4 lectin domain (T4ld) binding to GalNAc-MUC1 glycopeptide, ELISA. On the procedure:
as §1, §2, §3

In test [6] the target is T4, secreted soluble GalNAc-T4 (Homo sapiens, UniProt Q8N4A0).
T4 construct: 6xHis (N); thrombin cleavage site (N); T7 antibody site (N); made in house; host or cells: baculovirus (pAcGP67A), High Five insect cells
T4 sequence (Q8N4A0 36-578 limits assumed): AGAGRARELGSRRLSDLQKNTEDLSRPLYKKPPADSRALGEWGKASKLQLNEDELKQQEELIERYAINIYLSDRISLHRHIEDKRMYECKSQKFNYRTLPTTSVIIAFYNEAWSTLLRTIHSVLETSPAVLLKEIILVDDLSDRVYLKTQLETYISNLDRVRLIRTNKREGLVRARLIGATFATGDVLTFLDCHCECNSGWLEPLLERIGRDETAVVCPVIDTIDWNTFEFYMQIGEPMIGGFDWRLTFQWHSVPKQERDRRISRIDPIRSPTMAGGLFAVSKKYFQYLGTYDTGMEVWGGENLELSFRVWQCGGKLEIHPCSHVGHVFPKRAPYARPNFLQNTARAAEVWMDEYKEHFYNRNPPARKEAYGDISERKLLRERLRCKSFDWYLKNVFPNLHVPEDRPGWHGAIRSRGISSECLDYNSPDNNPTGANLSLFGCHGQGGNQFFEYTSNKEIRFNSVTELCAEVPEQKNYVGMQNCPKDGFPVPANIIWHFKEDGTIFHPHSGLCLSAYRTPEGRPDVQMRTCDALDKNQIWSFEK
In words: Inhibition of secreted soluble GalNAc-T4 (sT4) binding to GalNAc-MUC1 glycopeptide, ELISA. Here is the method: as §1, §3

Test [7] concerns the target Helix Pomatia lectin (HPA) (Helix pomatia, UniProt Q2F1K8). The experiment in a line: Inhibition of Helix Pomatia lectin (HPA) binding, ELISA. Here is the method: Glycopeptides were purified by C-18 reverse phase HPLC. Peptides were custom synthesized by Neosystems (Strasbourg). Biotinylated Helix Pomatia lectin (HPA) was from KemEnTec (Denmark). Anti-MUC1 HMFG2 monoclonal antibody was a generous gift from Joyce Taylor-Papadimitriou.
as §1, §3

The subject of test [8] is GalNAc-T2 and -T4 secreted soluble enzymes as well as lectin domains. In words: Inhibition of GalNAc-transferase lectin binding to GalNAc-glycopeptides, statements on GalNAc-T2 and -T4 together. On the set-up: species or system human. Conditions: enzymes and isolated lectins. Here is the method: as §1
Lectins and antibodies to carbohydrates usually recognize the anomeric configuration of the sugar structures they bind.
as §3

Test [9] addresses human GalNAc-T4 (UDP-GalNAc:polypeptide N-acetylgalactosaminyltransferase T4) isolated truncated lectin domain (T4ld), HIS-tagged, amino acid residues 405-578 of GALNT4 (Homo sapiens, UniProt Q8N4A0). The experiment in a line: biochemical. In kind it is binding. Conditions: binding to GalNAc-MUC1 glycopeptide.
Text: In order to minimize the size and functional complexity of GalNAc-transferase lectins to be used as probes for binding studies, we used multiple sequence alignment analysis to predict and design suitable expression constructs for isolated lectin domains (FIG. 2). In the present invention a direct binding assay was developed using isolated lectin domains of GalNAc-T4 and -T2 with minimal size (FIG. 5). […] The lectin Helix Pomatia (HP) was used as a control plant lectin with known binding specificity for […].
as §1, §2, §3
The ligand target used in this Example is a GalNAc-MUC1 glycopeptide produced enzymatically from synthetic peptides.

Helix Pomatia lectin (HPA), sequence (Q2F1K8 entry or part of it): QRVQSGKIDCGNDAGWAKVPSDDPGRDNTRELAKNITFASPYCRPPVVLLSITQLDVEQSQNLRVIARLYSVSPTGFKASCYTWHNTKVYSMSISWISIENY
human GalNAc-T4 (UDP-GalNAc:polypeptide N-acetylgalactosaminyltransferase T4) isolated truncated lectin domain (T4ld), HIS-tagged, amino acid residues 405-578 of GALNT4, sequence (Q8N4A0 405-578): as the sequence (Q8N4A0 405-578) above

For the compound `CC(=O)N[C@H]1[C@H](OCc2ccccc2)O[C@H](CO)[C@@H](O)[C@@H]1O` [BzlβGlcNAc], the “O-linked mucin carbohydrate structures T, Tn and sialyl-Tn” value in [1] is “upregulated”.

Turning to `CC(=O)N[C@H]1[C@@H](OCc2ccccc2)O[C@H](CO)[C@H](O)[C@@H]1O[C@@H]1O[C@H](CO)[C@H](O)[C@H](O)[C@H]1O` [Galβ1-3GalNAcα-benzyl], in [2], the “substrate for ST3Gal-I” value was “efficient substrate”.

Turning to `CC(=O)N[C@H]1[C@@H](OP(=O)(O)OP(=O)(O)OC[C@H]2O[C@@H](n3ccc(=O)[nH]c3=O)[C@H](O)[C@@H]2O)O[C@H](CO)[C@H](O)[C@@H]1O` [UDPαGalNAc, UDP-N-acetylgalactosamine], the IC50 was above 100 mM in test [3], 65 mM in [4], 50 mM in [5] and 30 mM in test [6]. In addition, in test [7], the “inhibition of Helix Pomatia binding, in words” value is reported as “strong inhibitor”. Further, the “inhibition of GalNAc-T2 and -T4 lectin mediated binding, in words” value in test [8] is reported as “not a significant inhibitor”.

In the case of `CC(=O)N[C@H]1[C@H](Oc2ccc([N+](=O)[O-])cc2)O[C@H](CO)[C@H](O)[C@@H]1O` [pNPβGalNAc], the IC50 in test [3] (read-out: T2ld: Concentration required for 50% inhibition (IC50)) is above 10 mM; in [4] (read-out: sT2: Concentration required for 50% inhibition (IC50)), above 10 mM; in [9], 8 mM.
